Earlier results on one compound are cited in US20150141549A1, “ANTIBIOTIC PARTICLES AND PRODUCTION METHOD THEREOF” (Japan EnviroChemicals, Ltd., priority 2012, published 2015).

As for `CCCCNC(=O)OCC#CI` [IPBC, 3-iodo-2-propynylbutylcarbamate], the water solubility is reported as 150 ppm.
